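All cell lines were grown in 96-well plates and treated with compound for 48 hours. GI50 is the concentration that inhibits growth by half. At the TGI there is no net growth.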
Key:
Test in all cases: growth of human tumour cells (NCI), 48 h
[1] = tested on: SNB-75 CNS
[2] = tested on: MDA-MB-231 breast
[3] = tested on: NCI-H23 lung
[4] = tested on: HL-60(TB) leukemia
[5] = tested on: NCI-H460 lung
[6] = tested on: NCI-H226 lung
[7] = tested on: MCF7 breast
[8] = tested on: UO-31 renal
[9] = tested on: HCT-15 colon
[10] = tested on: HOP-92 NSCLC
[11] = tested on: SK-OV-3 ovarian
[12] = tested on: HCT-116 colon
[13] = tested on: OVCAR-3 ovarian
[14] = tested on: UACC-62 melanoma
[15] = tested on: RPMI-8226 leukemia
[16] = tested on: HCC-2998 colon
[17] = tested on: PC-3 prostate
[18] = tested on: DU-145 prostate
[19] = tested on: HS 578T breast
[20] = tested on: HT29 colon
[21] = tested on: MALME-3M melanoma
[22] = tested on: 786-0 renal
[23] = tested on: EKVX NSCLC
[24] = tested on: SK-MEL-5 melanoma
[25] = tested on: RXF 393 renal
[26] = tested on: UACC-257 melanoma
[27] = tested on: A549 NSCLC
[28] = tested on: SR leukemia
[29] = tested on: SF-268 CNS
[30] = tested on: MOLT-4 leukemia
[31] = tested on: U251 CNS
[32] = tested on: BT-549 breast
[33] = tested on: OVCAR-5 ovarian
[34] = tested on: NCI-H522 lung
[35] = tested on: LOX IMVI melanoma
[36] = tested on: SF-539 CNS
[37] = tested on: HOP-62 NSCLC
[38] = tested on: SF-295 CNS
[39] = tested on: NCI/ADR-RES ovarian
[40] = tested on: SNB-19 CNS
[41] = tested on: IGROV1 ovarian
[42] = tested on: OVCAR-4 ovarian
[43] = tested on: K-562 leukemia
[44] = tested on: SK-MEL-28 melanoma
[45] = tested on: TK-10 renal
[46] = tested on: CAKI-1 renal
[47] = tested on: M14 melanoma
[48] = tested on: T-47D breast
[49] = tested on: SW-620 colon
[50] = tested on: CCRF-CEM leukemia
[51] = tested on: COLO 205 colon
[52] = tested on: SK-MEL-2 melanoma
[53] = tested on: SN12C renal
[54] = tested on: A498 renal
[55] = tested on: OVCAR-8 ovarian
[56] = tested on: MDA-MB-435
[57] = tested on: ACHN renal
[58] = tested on: KM12 colon

## CN1CCN(Cc2ccc(NC(=O)c3cncc(C#Cc4cnc5ccc(O[C@@H]6CCOC6)nn45)c3)cc2C(F)(F)F)CC1
[1]
  GI50: 124 nM
  TGI: 510 nM
[2]
  GI50: 82.5 nM
  TGI: 475 nM
[3]
  GI50: 178 nM
  TGI: 729 nM
[4]
  GI50: 75.2 nM
  TGI: 364 nM
[5]
  GI50: 182 nM
  TGI: 703 nM
[6]
  GI50: 47.8 nM
  TGI: 911 nM
[7]
  GI50: 80.4 nM
  TGI: 580 nM
[8]
  GI50: 173 nM
  TGI: 682 nM
[9]
  GI50: 161 nM
  TGI: 639 nM
[10]
  GI50: 27.3 nM
  TGI: 117 nM
[11]
  GI50: 449 nM
  TGI: 1120 nM
[12]
  GI50: 64.9 nM
  TGI: 454 nM
[13]
  GI50: 194 nM
  TGI: 768 nM
[14]
  GI50: 165 nM
  TGI: 809 nM
[15]
  GI50: 265 nM
  TGI: 1260 nM
[16]
  GI50: 260 nM
  TGI: 886 nM
[17]
  GI50: 277 nM
  TGI: 1210 nM
[18]
  GI50: 187 nM
  TGI: 642 nM
[19]
  GI50: 127 nM
  TGI: 565 nM
[20]
  GI50: 111 nM
  TGI: 602 nM
[21]
  GI50: 61.3 nM
  TGI: 294 nM
[22]
  GI50: 265 nM
  TGI: 833 nM
[23]
  GI50: 288 nM
  TGI: 942 nM
[24]
  GI50: 586 nM
  TGI: 1220 nM
[25]
  GI50: 143 nM
  TGI: 405 nM
[26]
  GI50: 531 nM
  TGI: 1240 nM
[27]
  GI50: 195 nM
  TGI: 693 nM
[28]
  GI50: 82.3 nM
  TGI: 490 nM
[29]
  GI50: 158 nM
  TGI: 562 nM
[30]
  GI50: 81.8 nM
  TGI: 1320 nM
[31]
  GI50: 270 nM
  TGI: 933 nM
[32]
  GI50: 646 nM
  TGI: 1290 nM
[33]
  GI50: 223 nM
  TGI: 883 nM
[34]
  GI50: 107 nM
  TGI: 277 nM
[35]
  GI50: 139 nM
  TGI: 635 nM
[36]
  GI50: 99.8 nM
  TGI: 715 nM
[37]
  GI50: 176 nM
  TGI: 641 nM
[38]
  GI50: 454 nM
  TGI: 1180 nM
[39]
  GI50: 676 nM
  TGI: 1910 nM
[40]
  GI50: 301 nM
  TGI: 1220 nM
[41]
  GI50: 89.4 nM
  TGI: 587 nM
[42]
  GI50: 155 nM
  TGI: 940 nM
[43]
  GI50: 5 nM
  TGI: 1790 nM
[44]
  GI50: 186 nM
  TGI: 813 nM
[45]
  GI50: 177 nM
  TGI: 632 nM
[46]
  GI50: 122 nM
  TGI: 596 nM
[47]
  GI50: 66.2 nM
  TGI: 181 nM
[48]
  GI50: 556 nM
  TGI: 1310 nM
[49]
  GI50: 153 nM
  TGI: 623 nM
[50]
  GI50: 75.1 nM
  TGI: 3050 nM
[51]
  GI50: 109 nM
  TGI: 220 nM
[52]
  GI50: 114 nM
  TGI: 321 nM
[53]
  GI50: 120 nM
  TGI: 636 nM
[54]
  GI50: 606 nM
  TGI: 1250 nM
[55]
  GI50: 160 nM
  TGI: 634 nM
[56]
  GI50: 125 nM
  TGI: 653 nM
[57]
  GI50: 171 nM
  TGI: 670 nM
[58]
  GI50: 5 nM
  TGI: 539 nM

## NC(=O)c1c(NC(=O)c2ccc(C(F)(F)F)cc2)sc2c1CCC(=O)C2
[1]
  GI50: 1790 nM
  TGI: 5950 nM
[2]
  GI50: 1020 nM
  TGI: 3980 nM
[3]
  GI50: 887 nM
  TGI: 9090 nM
[4]
  GI50: 1350 nM
  TGI: 8060 nM
[5]
  GI50: 3350 nM
  TGI: 12800 nM
[6]
  GI50: 2040 nM
  TGI: 4980 nM
[7]
  GI50: 1370 nM
  TGI: 10100 nM
[8]
  GI50: 645 nM
  TGI: 1900 nM
[9]
  GI50: 699 nM
  TGI: 2810 nM
[10]
  GI50: 726 nM
  TGI: 3470 nM
[11]
  GI50: 3030 nM
  TGI: > 28600 nM
[12]
  GI50: 369 nM
  TGI: 3550 nM
[13]
  GI50: 575 nM
  TGI: 2470 nM
[14]
  GI50: 758 nM
  TGI: 2350 nM
[15]
  GI50: 279 nM
  TGI: 1260 nM
[16]
  GI50: 2490 nM
  TGI: 6950 nM
[17]
  GI50: 316 nM
  TGI: 1860 nM
[18]
  GI50: 4810 nM
  TGI: > 100000 nM
[19]
  GI50: 1890 nM
  TGI: 19300 nM
[20]
  GI50: 1070 nM
  TGI: 5260 nM
[21]
  GI50: 1080 nM
  TGI: 3100 nM
[22]
  GI50: 3910 nM
  TGI: 32000 nM
[23]
  GI50: 2420 nM
  TGI: 8580 nM
[24]
  GI50: 1730 nM
  TGI: 3320 nM
[25]
  GI50: 874 nM
  TGI: 4240 nM
[26]
  GI50: 1980 nM
  TGI: 5900 nM
[27]
  GI50: 3120 nM
  TGI: 15400 nM
[28]
  GI50: 393 nM
  TGI: > 100000 nM
[29]
  GI50: 1480 nM
  TGI: 14400 nM
[30]
  GI50: 1070 nM
  TGI: 8320 nM
[31]
  GI50: 426 nM
  TGI: 4670 nM
[32]
  GI50: 569 nM
  TGI: 7210 nM
[33]
  GI50: 1890 nM
  TGI: 6080 nM
[34]
  GI50: 613 nM
  TGI: 2390 nM
[35]
  GI50: 391 nM
  TGI: 2240 nM
[36]
  GI50: 500 nM
  TGI: 1810 nM
[37]
  GI50: 3550 nM
  TGI: 17600 nM
[38]
  GI50: 2170 nM
  TGI: 6010 nM
[39]
  GI50: 1480 nM
  TGI: 7490 nM
[40]
  GI50: 1310 nM
  TGI: 9920 nM
[41]
  GI50: 1230 nM
  TGI: 4350 nM
[42]
  GI50: 1940 nM
  TGI: 4830 nM
[43]
  GI50: 300 nM
  TGI: > 41300 nM
[44]
  GI50: 1140 nM
  TGI: 2820 nM
[45]
  GI50: 1660 nM
  TGI: 11200 nM
[46]
  GI50: 750 nM
  TGI: 2430 nM
[47]
  GI50: 1860 nM
  TGI: 4560 nM
[48]
  GI50: 545 nM
  TGI: 3340 nM
[49]
  GI50: 379 nM
  TGI: 1960 nM
[50]
  GI50: 266 nM
  TGI: 14000 nM
[51]
  GI50: 1550 nM
  TGI: 3930 nM
[52]
  GI50: 3210 nM
  TGI: 11100 nM
[53]
  GI50: 2230 nM
  TGI: 13200 nM
[54]
  GI50: 5060 nM
  TGI: 19200 nM
[55]
  GI50: 1850 nM
  TGI: 25000 nM
[56]
  GI50: 1950 nM
  TGI: 4750 nM
[57]
  GI50: 1250 nM
  TGI: 2530 nM
[58]
  GI50: 1720 nM
  TGI: 7180 nM

Source: PubChem BioAssay (NCI)
